In data set [1] the test system is REC-1 cell (MCL)-inoculated xenograft. Nature of the data set: REC-1 cell subcutaneous xenograft tumor model. Format: in vivo. The note with it: REC-1 xenograft, 100 mg/kg/day, 14 days.
Data set [2] can be described thus: drug enrichment in the tumor. Format: in vivo, mouse. Particulars: 100 mg/kg.
Data set [3] concerns REC-1. As to the kind of experiment: anti-proliferative CellTiter-Glo assay. Format: cell-based. Particulars: Homo sapiens, Rec1; REC-1, 72 h. As for the experimental part:
(§1) Cell viability was measured using the CellTiter–Glo assay (Promega, USA) according to the manufacturer’s instructions, and […] was measured in a Bio-red Microplate reader (Bio-Red, USA).

For data set [4], the system named is TMD8. As to the kind of experiment: anti-proliferative CellTiter-Glo assay. It counts as cell-based. Particulars: Homo sapiens, TMD8, 72 h. As to the method: as §1
Data set [5] concerns SK-OV-3 cells. Nature of the data set: NK-cell-mediated ADCC, LDH release cytotoxicity assay, Herceptin. Format: cell-based, human. As to the method:
(§2) The cytotoxicity of NK cells was measured using the CyQUANT™ LDH Cytotoxicity Assay Kit (Invitrogen™, #C20300) according to the manufacturer’s instructions. Briefly, enriched NK cells (6 × 10^5 /ml) were cultured with the same volume of Mino cell and SK-OV-3 cell (1-2 × 10^4 /ml) in a 96-well plate for 4 h with Rituximab and Herceptin (10 μg/mL) and CHMFL-BTK-85 or PCI32765 at 37°C in a humidified CO2 incubator prior to removal of the supernatant for lactate dehydrogenase (LDH) release measurements. Calculate % Cytotoxicity by using the following formula: %Cytotoxicity = (Compound-treated LDH activity-Spontaneous LDH activity)/(Maximum LDH activity-Spontaneous LDH activity)*100.

The test system of data set [6] is TMD8 cell (DLBCL)-inoculated xenograft. Nature of the data set: TMD8 cell subcutaneous xenograft tumor model. Format: in vivo. The note with it: TMD8 xenograft, 100 mg/kg/day, 28 days.
The test system of data set [7] is Mino cells. As to the kind of experiment: NK-cell-mediated ADCC, LDH release cytotoxicity assay, Rituximab. Format: cell-based, human. As to the method: as §2
In data set [8] the test system is Pfeiffer. Nature of the data set: anti-proliferative CellTiter-Glo assay. Particulars: Homo sapiens, 72 h. It counts as cell-based. As for the experimental part: as §1
Data set [9] relates to Raji. Nature of the data set: anti-proliferative CellTiter-Glo assay. Format: cell-based. Particulars: Homo sapiens, 72 h. As for the experimental part: as §1
Data set [10] has as its system WSU-DLCL2. As to the kind of experiment: anti-proliferative CellTiter-Glo assay. Format: cell-based. The note with it: Homo sapiens, WSUDLCL2; WSU-DLCL2, 72 h. As to the method: as §1
Data set [11] concerns Ramos. Nature of the data set: anti-proliferative CellTiter-Glo assay. It counts as cell-based. Particulars: Homo sapiens, 72 h. As to the method:
as §1

Data set [12] relates to SU-DHL-6. Nature of the data set: anti-proliferative CellTiter-Glo assay. Format: cell-based. The note with it: Homo sapiens, SU-DHL-6, 72 h. As for the experimental part:
as §1

The test system of data set [13] is U2932. As to the kind of experiment: anti-proliferative CellTiter-Glo assay. The note with it: Homo sapiens, U2932, 72 h. Format: cell-based. As for the experimental part: as §1
The test system of data set [14] is JEKO-1. As to the kind of experiment: anti-proliferative CellTiter-Glo assay. It counts as cell-based. Particulars: Homo sapiens, JeKo-1, 72 h. As to the method:
as §1

Data set [15] deals with SU-DHL-2. Nature of the data set: anti-proliferative CellTiter-Glo assay. It counts as cell-based. The note with it: Homo sapiens, SU-DHL-2, 72 h. As to the method: as §1
In data set [16] the test system is DOHH2. Nature of the data set: anti-proliferative CellTiter-Glo assay. Format: cell-based. The note with it: Homo sapiens, DOHH-2; DOHH2, 72 h. As to the method:
as §1

The test system of data set [17] is REC-1 cells bone marrow engraftment. As to the kind of experiment: REC-1 cells bone marrow engrafted mouse model. Format: in vivo. Particulars: REC-1 bone marrow engraftment, 100 mg/kg/day p.o. As for the experimental part: Five-week old female NOD-SCID mice were purchased from the Beijing Vital River Laboratory Animal Technology Co., Ltd (Beijing, China). All animals were housed in a specific pathogen free facility and used according to the animal care regulations of Hefei Institutes of Physical Science, Chinese Academy of Sciences. NOD-SCID mice were induced by intraperitoneal injection of cyclophosphamide (CTX) 50 mg/kg daily for two days. 8 million REC-1 cells in 0.3 mL RPMI1640 medium were injected by intravenous after 24 h. […] Mice were monitored daily and were euthanized when moribund or at early signs of hind limb paralysis.

`CC#CC(=O)N1CCC[C@H]1c1nc(-c2ccc(C(=O)Nc3ccccn3)cc2)c2c(N)nccn12` [Acalabrutinib] had a TGI in data set [1] of 58%. In addition, the “concentration in the tumor” value in data set [2] turned out to be 1300 nM. Also, the GI50 came out at 30 ± 2 nM in [3] and 20 ± 3 nM in data set [4].
Regarding `C=CC(=O)N1CCC[C@@H](n2nc(-c3ccc(Oc4ccccc4)cc3)c3c(N)ncnc32)C1` [Ibrutinib, reference compound], the “effect on antibody-dependent NK-cell-mediated cytotoxicity (ADCC)” value in data set [5] and in [7] was “significantly impaired” throughout. The TGI in data set [1] came to 59%; in data set [6] it was 90%. For the same molecule, the “concentration in the tumor” value in data set [2] is 1230 nM. Moreover, the GI50 in [8] came to 1200 ± 120 nM; in [9], 6100 ± 1800 nM; in data set [3], 30 ± 21 nM; in [10], 180 ± 100 nM; in data set [11], 3800 ± 660 nM; in data set [12], 370 ± 55 nM. In addition, the GI50 in data set [13] was 1400 ± 1200 nM; in data set [14], 2000 ± 150 nM; in [4], 1 ± 0.1 nM; in data set [15], 4900 ± 200 nM; in data set [16], 260 ± 180 nM. In [17], this molecule came in with a median survival time of 39 days.

The record behind these values is PMC7490411 (Signal Transduction and Targeted Therapy, 2020).
